# Test results reported in publication PMC7038136 (2020).
# Tests used:
# [1] = tested on: sulfhydryl modified aptamer 31 (DNA, aptamer) ACGCATAGGGTGCGACCACATACGCCCCATGTATGTCCCTTGGTTGTGCCCTATGCGT; assay: electrochemical impedance spectroscopy; conditions: K+ (0.5 M KCl), 10 mM K3[Fe(CN)6]/K4[Fe(CN)6], PBS pH 7.0, 30 min
# [2] = tested on: Aptamer 31 (DNA, aptamer) ACGCATAGGGTGCGACCACATACGCCCCATGTATGTCCCTTGGTTGTGCCCTATGCGT; assay: LSPR (OpenSPR), one-to-one kinetic model; conditions: Na+ (29.2 g NaCl per 500 mL, about 1 M), Mg2+ (0.1 g MgCl2·6H2O per 500 mL, about 1 mM); immobilised compound; amine chip; phosphate buffer pH 7.0; aptamer as analyte, 2.5-40 nM
# [3] = tested on: Aptamer 123 (DNA, aptamer) ACGCATAGGGCAACCAGACCAGCCCCATCCCCATGTGACTTCTGTTTGGCCTATGCGT; assay: LSPR (OpenSPR), one-to-one kinetic model; conditions: Na+ (29.2 g NaCl per 500 mL, about 1 M), Mg2+ (0.1 g MgCl2·6H2O per 500 mL, about 1 mM); immobilised compound; amine chip; phosphate buffer pH 7.0; aptamer as analyte, 2.5-40 nM
# [4] = tested on: Aptamer 203 (DNA, aptamer) ACGCATAGGGCAAGACAAACTGCGCCATTCAGCATGCTGTTCGGGTTGGCCTATGCGT; assay: LSPR (OpenSPR), one-to-one kinetic model; conditions: Na+ (29.2 g NaCl per 500 mL, about 1 M), Mg2+ (0.1 g MgCl2·6H2O per 500 mL, about 1 mM); immobilised compound; amine chip; phosphate buffer pH 7.0; aptamer as analyte, 2.5-40 nM
# [5] = tested on: Aptamer 281 (DNA, aptamer) ACGCATAGGGTGTGCATCAGCAGTACCAACGACGTTGTGGTGTGCTCATCCTATGCGT; assay: LSPR (OpenSPR), one-to-one kinetic model; conditions: Na+ (29.2 g NaCl per 500 mL, about 1 M), Mg2+ (0.1 g MgCl2·6H2O per 500 mL, about 1 mM); immobilised compound; amine chip; phosphate buffer pH 7.0; aptamer as analyte, 2.5-40 nM
# [6] = tested on: Aptamer 31 (DNA, aptamer) ACGCATAGGGTGCGACCACATACGCCCCATGTATGTCCCTTGGTTGTGCCCTATGCGT; assay: AuNP colorimetric assay (A620/A520 ratio > 1.1); conditions: 1.0 M NaCl added after incubation to aggregate AuNPs; 0.4 μM aptamer, 1 μg/mL DEHP, 30 min; room temperature
# [7] = tested on: Aptamer 123 (DNA, aptamer) ACGCATAGGGCAACCAGACCAGCCCCATCCCCATGTGACTTCTGTTTGGCCTATGCGT; assay: AuNP colorimetric assay (A620/A520 ratio > 1.1); conditions: 1.0 M NaCl added after incubation to aggregate AuNPs; 0.4 μM aptamer, 1 μg/mL DEHP, 30 min; room temperature
# [8] = tested on: Aptamer 203 (DNA, aptamer) ACGCATAGGGCAAGACAAACTGCGCCATTCAGCATGCTGTTCGGGTTGGCCTATGCGT; assay: AuNP colorimetric assay (A620/A520 ratio > 1.1); conditions: 1.0 M NaCl added after incubation to aggregate AuNPs; 0.4 μM aptamer, 1 μg/mL DEHP, 30 min; room temperature
# [9] = tested on: Aptamer 281 (DNA, aptamer) ACGCATAGGGTGTGCATCAGCAGTACCAACGACGTTGTGGTGTGCTCATCCTATGCGT; assay: AuNP colorimetric assay (A620/A520 ratio > 1.1); conditions: 1.0 M NaCl added after incubation to aggregate AuNPs; 0.4 μM aptamer, 1 μg/mL DEHP, 30 min; room temperature
SMILES,binding ([1]; only 30.518 pg/mL tested),further results
CC(C)COC(=O)c1ccccc1C(=O)OCC(C)C,no,
CCCCC(CC)COC(=O)c1ccc(OCCCC(=O)O)cc1C(=O)OCC(CC)CCCC (stereo not drawn),,Kd [2]: 2.26 ± 0.06 nM; Kd [3]: 5.33 ± 0.01 nM; Kd [4]: 2.68 ± 0.2 nM; Kd [5]: 43 ± 0.7 nM
CCCCC(CC)COC(=O)c1ccccc1C(=O)OCC(CC)CCCC (stereo not drawn),,binding ([1]; 30.518 pg/mL): yes; binding [6]: yes; binding [7]: yes; binding [8]: yes; binding [9]: yes
CCCCCCCCOC(=O)c1ccccc1C(=O)OCCCCCCCC,no,
CCCCOC(=O)c1ccccc1C(=O)OCc1ccccc1,no,
COC(=O)c1ccccc1C(=O)OC,no,
O=C(OC1CCCCC1)c1ccccc1C(=O)OC1CCCCC1,no,
O=C(Oc1ccccc1)c1ccccc1C(=O)Oc1ccccc1,no,

# The next lines start with results.
binding ([1]; only 30.518 pg/mL tested),SMILES,further results
no,CCCCCCOC(=O)c1ccccc1C(=O)OCCCCCC,
no,CCCCOC(=O)c1ccccc1C(=O)OCCCC,
no,CCOC(=O)c1ccccc1C(=O)OCC,
